Assay results: patent US7767659B2, “Synthesis of naturally occurring ecteinascidins and related compounds” (Pharma Mar, S.A., priority 2002, dated 2010)

Tests used:
A-549 = experiment: cells; details: Homo sapiens, A549, 48 h
Summary of the method: (§1)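 Colorimetric SRB read (490 nm) on triplicate wells after 48 h at 37 °C, 5% CO2. Dose range 10 to 10^−8 μg/ml; 5×10^3 cells/well pre-attached 18 h.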

HT-29 = experiment: cells; details: Homo sapiens, HT-29, 48 h
Summary of the method: as §1

LoVo = experiment: cells; details: Homo sapiens, LoVo, 48 h
Summary of the method: as §1

DU-145 = experiment: Inhibition of cells growth by colorimetric assay (SRB); details: Homo sapiens, DU-145, 48 h
Summary of the method: as §1

HeLa-APL = experiment: as above; details: Homo sapiens, 48 h
Summary of the method: as §1

HeLa = experiment: as above; details: Homo sapiens, HeLa, 48 h
Summary of the method: as §1

IGROV-1 = experiment: as above; details: Homo sapiens, IGROV-1, 48 h
Summary of the method: as §1

IGROV-ET = experiment: as above; details: Homo sapiens, 48 h
Summary of the method: as §1

K-562 = experiment: as above; details: Homo sapiens, K562, 48 h
Summary of the method: as §1

LNCaP = experiment: as above; details: Homo sapiens, LNCaP, 48 h
Summary of the method: as §1

LoVo-Dox = experiment: as above; details: Homo sapiens, 48 h
Summary of the method: as §1

PANC-1 = experiment: as above; details: Homo sapiens, PANC-1, 48 h
Summary of the method: as §1

SK-BR-3 = experiment: as above; details: Homo sapiens, SK-BR-3, 48 h
Summary of the method: as §1

SK-MEL-28 = experiment: as above; details: Homo sapiens, SK-MEL-28, 48 h
Summary of the method: as §1

In the case of `C=CCOc1c(C)c2c(c3c1CC1[C@H]4c5c(cc(C)c(OC)c5O)C[C@@H]([C@H](C#N)N1[C@H]3CN)N4C)OCO2` (stereo partly drawn) [compound 1], the GI50 (A-549; read-out: GI50 A549) was 1.53 µM, the CC50 (A-549; read-out: LC50 A549) was 19.2 µM and the IC (TGI) (A-549; read-out: TGI A549) was 6.07 µM. For the same compound, the GI50 (HT-29; read-out: GI50 HT29) was 1.11 µM, the CC50 (HT-29; read-out: LC50 HT29) was 19.2 µM and the IC (TGI) (HT-29; read-out: TGI HT29) was 19.2 µM. For the same compound, the GI50 (LoVo; read-out: GI50 LOVO) was 0.932 µM, the CC50 (LoVo; read-out: LC50 LOVO) was 19.2 µM and the IC (TGI) (LoVo; read-out: TGI LOVO) was 4 µM. It also gave a GI50 (DU-145; read-out: GI50 DU145) of 0.567 µM, a CC50 (DU-145; read-out: LC50 DU145) of 1.92 µM and an IC (TGI) (DU-145; read-out: TGI DU145) of 1.07 µM. For the same compound, the GI50 (HeLa-APL; read-out: GI50 HELA-APL) was 0.717 µM, the CC50 (HeLa-APL; read-out: LC50 HELA-APL) was 7.51 µM and the IC (TGI) (HeLa-APL; read-out: TGI HELA-APL) was 1.63 µM. For the same compound, the GI50 (HeLa; read-out: GI50 HELA) was 1.08 µM, the CC50 (HeLa; read-out: LC50 HELA) was 18.1 µM and the IC (TGI) (HeLa; read-out: TGI HELA) was 2.84 µM. It also gave a GI50 (IGROV-1; read-out: GI50 IGROV) of 0.901 µM, a CC50 (IGROV-1; read-out: LC50 IGROV) of 19.2 µM and an IC (TGI) (IGROV-1; read-out: TGI IGROV) of 2.59 µM. It also gave a GI50 (IGROV-ET; read-out: GI50 IGROV-ET) of 0.97 µM, a CC50 (IGROV-ET; read-out: LC50 IGROV-ET) of 19.2 µM and an IC (TGI) (IGROV-ET; read-out: TGI IGROV-ET) of 19.2 µM. It also gave a GI50 (K-562; read-out: GI50 K562) of 0.361 µM, a CC50 (K-562; read-out: LC50 K562) of 1.77 µM and an IC (TGI) (K-562; read-out: TGI K562) of 0.799 µM. It also gave a GI50 (LNCaP; read-out: GI50 LNCAP) of 0.434 µM, a CC50 (LNCaP; read-out: LC50 LNCAP) of 1.29 µM and an IC (TGI) (LNCaP; read-out: TGI LNCAP) of 0.747 µM. For the same compound, the GI50 (LoVo-Dox; read-out: GI50 LOVO-DOX) was 6.17 µM, the CC50 (LoVo-Dox; read-out: LC50 LOVO-DOX) was 19.2 µM and the IC (TGI) (LoVo-Dox; read-out: TGI LOVO-DOX) was 19.2 µM. For the same compound, the GI50 (PANC-1; read-out: GI50 PANC-1) was 0.887 µM, the CC50 (PANC-1; read-out: LC50 PANC-1) was 19.2 µM and the IC (TGI) (PANC-1; read-out: TGI PANC-1) was 4.36 µM. For the same compound, the GI50 (SK-BR-3; read-out: GI50 SK-BR3) was 1.01 µM, the CC50 (SK-BR-3; read-out: LC50 SK-BR3) was 19.2 µM and the IC (TGI) (SK-BR-3; read-out: TGI SK-BR3) was 3.96 µM. For the same compound, the GI50 (SK-MEL-28; read-out: GI50 MEL-28) was 0.561 µM, the CC50 (SK-MEL-28; read-out: LC50 MEL-28) was 6.07 µM and the IC (TGI) (SK-MEL-28; read-out: TGI MEL-28) was 1.15 µM.
